Results published in publication PMC3562233 (PLoS ONE, 2013).

How the values were obtained:
V27A M2 [1] = molecular target: T1, V27A M2 (Influenza A virus, UniProt P0DOF5, V27A); assay type: cell-based
S31N M2 [2] = molecular target: T2, S31N M2 (Influenza A virus, UniProt P0DOF5, S31N); assay type: cell-based
S31N M2 [3] = molecular target: T2, S31N M2; assay type: cell-based, influenza A virus (Udorn strain)
V27A M2 [4] = molecular target: T1, V27A M2; assay type: cell-based, influenza A virus (Udorn strain)

Compound: O=[N+]([O-])c1ccc(CNC23CC4CC(CC(C4)C2)C3)cc1 [Compound 4, 1-adamantyl (4-nitrobenzyl)amine]
- % inhibition at 100 µM in TEVC V27A (V27A M2 [1]): 9.7 ± 0.3%
- % inhibition at 100 µM in TEVC S31N (S31N M2 [2]): 15.9 ± 0.2%

Compound: CC1(C)C2CCC1(C)C(N1CCNCC1)C2.Cl.Cl (stereo not drawn) [Compound 16, 1-(1,7,7-trimethylbicyclo[2.2.1]hept-2-yl)piperazine dihydrochloride]
- activity against S31N mutant in the yeast assay (S31N M2 [3]): inactive

Compound: NC12CC3CC(CC(C3)C1)C2 [Amantadine, reference compound]
- activity against V27A mutant in the yeast assay (V27A M2 [4]): did not increase the growth
- activity against S31N mutant in the yeast assay (S31N M2 [3]): did not increase the growth

Compound: NC1CCC2(CC1)C1CC3CC(C1)CC2C3 (stereo not drawn) [spiroadamantane amine]
- concentration that clearly increased growth of the V27A strain (V27A M2 [4]): ≥ 0.01 µM
